Patent US12233071B2, “Medicament for treating cough” (NIPPON CHEMIPHAR CO., LTD, priority 2018, dated 2025)
Entries after “also recorded” stand apart in the source; their conditions may differ.

What was measured:
[1] = test system: citric acid (0.5 M)-induced cough; assay: Citric acid-induced cough reflux in pretreatment guinea pigs, oral administration; format: in vivo, Hartly strain guinea pigs; settings: guinea pigs; for inhibition of citric acid-induced cough (number of coughs): oral (compound A 1, 3, 10 mg/kg; compound B 1, 3, 10, 30 mg/kg); for inhibition of citric acid-induced cough (number of coughs) / dose at which a significant inhibitory action on citric acid-induced cough was exhibited: 0.5 M citric acid 1 h after administration; for dose at which a significant inhibitory action on citric acid-induced cough was exhibited: oral
Excerpt: (§1) Cough reflux is induced by inhalation of (in the case of mice, 0.1 M or 0.25 M and in the case of guinea pigs, 0.25 M or 0.5 M) citric acid by mice or guinea pigs under non-anesthesia conditions. The citric acid is made aerosol by using an ultrasonic nebulizer (NE-U17: OMRON Corporation), and is inhaled while the air is supplied with an artificial respirator (SN-480-7: Shinano Seisakusho). The citric acid aerosol has an average particle size of from 1 to 8 μm, and the artificial respirator is used to supply the air at a one-time ventilation volume of 6 mL, a frequency of 30 times per min, and an inhalation period of 3 min.
The respiration and the cough reflux are measured in accordance with the body-plethysmograph method. The plethysmograph used includes: a plastic-made, cylindrical cylinder part in which the trunk of each mouse or guinea pig is housed; and a cap part that covers the head portion (any plastic-made cylinder is allowed as long as each experimental animal can be put in; in the case of the mouse, for instance, the part with a diameter of 4 cm and a length of 7 cm was used). An exhaust hole is created at an upper cylinder portion so as to be able to connect, via a silicon tube, to a respiratory flow meter (TP-602T: NIHON KOHDEN CORPORATION). To tightly seal the inside of the cylinder, a rubber or celluloid collar is attached to the neck of each animal, and the cap covering the whole head is used to fix them. The head-attached cap part has an exhaust port and an inhalation port created for inhalation of a cough-inducing substance. In addition, a screw-type lid is attached to a tail portion of the cylinder so as to move in or out each experimental animal. Each mouse is put in the cylinder, allowed to play for at least 30 min, adapted to an experimental environment, and then subjected to the experiment. The respiration is recorded in a PC (IdeaPad 300: Lenovo) for measurement by measuring, as a change in volume of the cylinder, the chest movement of each experimental animal in the cylinder by using a PowerLab (ML826 PowerLab 2/26: AD Instruments) via a respiratory flow meter. When a cough is induced, the chest of the experimental animal is moved vigorously, which causes an instantaneous large volume change in the cylinder. This change is recorded using the respiratory flow meter. This frequency is recorded to measure the number of coughs. The data is analyzed by LabChart version 8 (ADInstruments). In addition, immediately before inhalation of citric acid, the respiratory frequency per 15 sec is measured.
In this way, the effects were investigated.
At that time, Hartly strain guinea pigs were used as the guinea pigs, and 0.5 M citric acid was used as the citric acid.
In this way, the effects were investigated. Here, 0.5 M citric acid was used as the pretreated citric acid.

[2] = test system: ACh-induced contraction of bronchial smooth muscle; assay: Contraction of tracheobronchial smooth muscles excised from guinea pig (isometric tension, organ bath)
Experimental: An animal was sacrificed by phlebotomy while the ventral aorta was dissected under urethane (2 g/kg, i.p.) anesthesia. Then, a left major bronchial tissue was excised. After a connective tissue and blood vessels were removed, each ring specimen with a width of about 3 mm was prepared and suspended in an organ bath. Then, the isometric tension was measured while the resting tension was set to 1.0 g. After the baseline tension was stabilized, whether each ring specimen was subject to an acetylcholine (ACh: 10^−3 M)-mediated contraction reaction was verified. Then, the following mater was investigated. […] Next, a tracheal or left major bronchial tissue was excised. After a connective tissue and blood vessels were removed, each ring specimen with a width of about 3 mm was prepared and suspended in an organ bath. Then, the isometric tension was measured while the resting tension was set to 1.0 g. After the baseline tension was stabilized, whether each ring specimen was subject to an acetylcholine (ACh: 10^−3 M)-mediated contraction reaction was verified. Then, the following mater was investigated. […] The specimen was likewise treated with just 0.1% DMSO.

[3] = test system: citric acid (0.25 M)-induced cough; assay: Citric acid-induced cough in OVA-sensitized cough model guinea pigs, oral administration; format: in vivo, Hartly strain guinea pigs; settings: oral 1 mg/kg 1 h before citric acid stimulation; for cough response increased due to airway inflammation: OVA-sensitized cough group guinea pigs
Excerpt: When OVA, a foreign antigen, is inhaled, airway inflammation accompanied by eosinophil infiltration is induced. Consequently, OVA-sensitized guinea pigs present symptoms of allergic cough and atopic cough. Thus, the guinea pigs have been widely used as a pathological model (antigen-induced airway inflammation model animals) reflecting human clinical conditions. Here, in the Examples of the present application, whether a compound(s) of the present application elicited cough inhibitory action against the pathological model was evaluated.
The OVA-sensitized cough model guinea pigs were produced specifically by the following procedure.
Note that in the following procedure, Ovalbumin or mepyramine maleate is dissolved in saline and then used.
The number of citric acid-induced coughs is measured. Then, a mixture of 200 μL of 0.05% OVA (Ovalbumin) and 100 μL of Imject Alum (prepared by suspending aluminum hydroxide and magnesium hydroxide, each at a concentration of 40 mg/mL, in water and by adding an inactivating stabilizer thereto) per guinea pig is administered intraperitoneally (i.p.).
After the intraperitoneal administration, 0.5% OVA is given for 5 min by inhalation at days 7, 14, 21, and 28.
Note that at 30 min before the inhalation, mepyramine maleate (10 mg/kg) is given i.p. to prevent a shock symptom.
At Day 35, 0.5% ovalbumin is given for 60 min by inhalation. Note that at 30 min before the inhalation, mepyramine maleate (10 mg/kg) is given i.p. to prevent a shock symptom.
The next day of the final 0.5% ovalbumin challenge (day 35), the test is conducted.
OVA-sensitized cough model guinea pigs were used and stimulated with 0.25 M citric acid by the same procedure as of Example 9 to induce cough reflux. For guinea pigs used in this Example, Hartly strain guinea pigs were used for any of the below-described pretreatment guinea pigs, sham group guinea pigs, and OVA-sensitized cough group guinea pigs.
OVA-sensitized cough model guinea pigs were used and stimulated with 0.25 M citric acid by the same procedure as of Example 10 to induce cough reflux. For guinea pigs used in this Example, Hartly strain guinea pigs were used for any of the below-described pretreatment guinea pigs, sham group guinea pigs, and OVA-sensitized cough group guinea pigs.

[4] = test system: citric acid (0.25 M)-induced cough; assay: Citric acid-induced cough reflux in pretreatment mice, oral administration; format: in vivo, ICR strain mice
[5] = test system: citric acid (0.25 M)-induced cough; assay: Citric acid-induced cough in mice, local application by inhalation using a nebulizer; format: in vivo, ICR strain mice; settings: inhalation of 10, 30 or 100 μg/mL by nebulizer, 0.25 M citric acid after 4 min
Excerpt: as §1
(§2) The respiration and the cough reflux are measured in accordance with the body-plethysmograph method. […] The respiration is recorded in a PC (IdeaPad 300: Lenovo) for measurement by measuring, as a change in volume of the cylinder, the chest movement of each experimental animal in the cylinder by using a PowerLab (ML826 PowerLab 2/26: AD Instruments) via a respiratory flow meter. […] This change is recorded using the respiratory flow meter. This frequency is recorded to measure the number of coughs. The data is analyzed by LabChart version 8 (ADInstruments). In addition, immediately before inhalation of citric acid, the respiratory frequency per 15 sec is measured. […]

[6] = test system: citric acid (0.1 M)-induced cough; assay: Citric acid-induced cough in airway inflammation (LPS) model mice, oral administration; format: in vivo, ICR strain mice; settings: oral 0.3 mg/kg 1 h before 0.1 M citric acid stimulation
Experimental: Model mice with chronic cough caused by airway inflammation (referred to as “airway inflammation model mice”) were produced.
The airway inflammation model mice were produced while the mice were nasally instilled with lipopolysaccaride (LPS:1 μg/100 μL) daily for 3 days under diethyl ether inhalation anesthesia.
In addition, experiments for evaluating medicament efficacy on the airway inflammation model mice were conducted at 24 h after the final LPS administration.
Cough reflux is induced by inhalation of (in the case of mice, 0.1 M or 0.25 M and in the case of guinea pigs, 0.25 M or 0.5 M) citric acid by mice or guinea pigs under non-anesthesia conditions. […]
as §2

Structure (SMILES) | medicament efficacy on citric acid-induced cough at 1 mg/kg ([1]; oral 1 mg/kg, investigation of Example 10 (FIG. 10)) | inhibition of citric acid-induced cough (number of coughs) [1] | dose at which a significant inhibitory action on citric acid-induced cough was exhibited [1] [mg/kg] | effect on ACh-induced contraction of bronchial smooth muscle ([2]; 10^−6 M in DMSO at final 0.1%, 10^−5 M ACh) | cough response increased due to airway inflammation [3] | change in the number of coughs in sham group guinea pigs [3] | effect on baseline tension of bronchial smooth muscle ([2]; 10^−5 M, solvent water) | effect on 10^−5 M Ach-induced contraction reaction of bronchial smooth muscle ([2]; 10^−5 M, solvent water, about 50% contraction of the maximum contraction) | medicament efficacy on citric acid-induced cough at 0.3 mg/kg ([4]; oral 0.3 mg/kg, examination of Example 3) | cough inhibition rate, compound A versus the same dose of dihydrocodeine ([4]; oral 10 mg/kg, 0.25 M citric acid 1 h after administration) | inhibition of citric acid-induced cough (number of coughs) ([4]; oral 0.3, 1, 3 or 10 mg/kg, citric acid stimulation 1 h after administration) | dose at which a significant inhibitory action on citric acid-induced cough was exhibited ([4]; oral, citric acid stimulation 1 h after administration) [mg/kg] | antitussive effect by local application [5] | cough response increased due to airway inflammation ([6]; airway inflammation group mice) | change in the number of coughs in sham group mice ([6]; sham group mice (saline instead of LPS), sodium salt, 0.3 mg/kg)
O=C1CC(=O)N(c2ccc(NC(=O)c3ccccc3I)cc2)c2ccc3ccccc3c2N1 [compound B, 5-[4-(2-iodobenzoylamino)phenyl]-1H-naphtho[1,2-b][1,4]diazepin-2,4(3H,5H)-dione] | does not elicit any significant medicament efficacy | inhibited citric acid-induced cough in a dose-dependent manner | ≥ 1 | Neither 0.1% DMSO itself, which was a solvent, nor compound B (at 10^−6 M) affected the ACh-induced contraction of bronchial smooth muscle | inhibited completely | a change in the number of coughs was unobserved | – | – | – | – | – | – | – | – | –
O=C1CC(=O)N(c2cccc(-c3nnn[nH]3)c2)c2ccc3ccccc3c2N1.[Na] [compound A, 5-[3-(1H-tetrazol-5-yl)phenyl]-1H-naphtho[1,2-b][1,4]diazepin-2,4(3H,5H)-dione sodium salt] | – | inhibited citric acid-induced cough in a dose-dependent manner | ≥ 1 | – | inhibited completely | a change in the number of coughs was unobserved | did not affect | did not affect | did not elicit any significant medicament efficacy | comparable | inhibited citric acid-induced cough in a dose-dependent manner | ≥ 1 | elicited an antitussive effect, in a dose-dependent manner, more strongly and more rapidly using a lower dose than the case of oral administration | inhibited completely | a change in the number of coughs was unobserved; also recorded: did not elicit any significant medicament efficacy
